Measurements as given in patent US20070254905A1, “Pharmaceutical Formulation for Increasing Solubility of 10-Hydroxycamptothecin Compounds in Non-Aqueous Polar Solvents” (priority 2004, published 2007).
Converted amounts (≈) assume the structure as drawn. Read-outs that look alike come from different tables or passages of the source.

Columns and labels:
[1] = type: physicochemical
[2] = SN-38 content, lactone/carboxy anion ratio and pH after dilution of surfactant composition with aqueous solution; type: physicochemical; conditions: tromethamine/ethanol/cremophore EL solution, refrigerator 1 week, diluted with 0.9% saline to 5 Ml
[3] = Lyophilized SN-38 formulation reconstituted with water for injection, HPLC and pH; type: physicochemical
Experimental: Alternatively, a 10-hydroxycamptothecin compound and an amine compound are solubilized in non-aqueous polar solvent, and polymer surfactant is added thereto to prepare a solution. Next, a caking agent for lyophilization is added thereto to prepare a lyophilized formulation. As a specific example, 250 mg of copolymer (mPEG-PLA) of polyethyleneglycol (molecular weight: 2,000 daltons) and polylactic acid (molecular weight: 1,800 daltons) maybe added to a solution in which SN-38 and tromethamine are solubilized in anhydrous ethanol as above, to prepare a pure solution, and then 4 Ml of aqueous mannitol solution (100 mg/Ml) as a caking agent for lyophilization is added thereto, which is filtered with a filter having a pore size of 200 nm, and lyophilized. This lyophilized formulation is reconstituted with 4 Ml of water for injection, and then analyzed by HPLC to confirm that the concentration of SN-38 was 205 μg/Ml, 92% or more of SN-38 existed in the form of a lactone, and the pH of the aqueous solution was 8.4.
12 mg of tromethamine was dissolved in 1 ml of anhydrous ethanol, and 1 mg of SN-38 was added thereto and heated to 60[…] to prepare a pure solution of orange color. Subsequently, the block copolymer of methoxypolyethyleneglycol and polylactic acid, and 200 mg of mPEG-PLA (mPEG molecular weight: 2,000 daltons, PLA molecular weight: 1,800 daltons) were added thereto to prepare a pure solution. Then, 5 ml of aqueous mannitol solution (50 mg/ml) was added thereto, mixed, filtered with a filter having a pore size of 200 nm, and lyophilized to prepare a lyophilized formulation.
Injectable water of 4 Ml was added to the lyophilized vial to reconstitute the lyophilized formulation.

topoisomerase □ = target: T1, topoisomerase □ (Homo sapiens, UniProt P11387); conditions: relative to CPT-11; cited from earlier work
T1 sequence (P11387 1-765): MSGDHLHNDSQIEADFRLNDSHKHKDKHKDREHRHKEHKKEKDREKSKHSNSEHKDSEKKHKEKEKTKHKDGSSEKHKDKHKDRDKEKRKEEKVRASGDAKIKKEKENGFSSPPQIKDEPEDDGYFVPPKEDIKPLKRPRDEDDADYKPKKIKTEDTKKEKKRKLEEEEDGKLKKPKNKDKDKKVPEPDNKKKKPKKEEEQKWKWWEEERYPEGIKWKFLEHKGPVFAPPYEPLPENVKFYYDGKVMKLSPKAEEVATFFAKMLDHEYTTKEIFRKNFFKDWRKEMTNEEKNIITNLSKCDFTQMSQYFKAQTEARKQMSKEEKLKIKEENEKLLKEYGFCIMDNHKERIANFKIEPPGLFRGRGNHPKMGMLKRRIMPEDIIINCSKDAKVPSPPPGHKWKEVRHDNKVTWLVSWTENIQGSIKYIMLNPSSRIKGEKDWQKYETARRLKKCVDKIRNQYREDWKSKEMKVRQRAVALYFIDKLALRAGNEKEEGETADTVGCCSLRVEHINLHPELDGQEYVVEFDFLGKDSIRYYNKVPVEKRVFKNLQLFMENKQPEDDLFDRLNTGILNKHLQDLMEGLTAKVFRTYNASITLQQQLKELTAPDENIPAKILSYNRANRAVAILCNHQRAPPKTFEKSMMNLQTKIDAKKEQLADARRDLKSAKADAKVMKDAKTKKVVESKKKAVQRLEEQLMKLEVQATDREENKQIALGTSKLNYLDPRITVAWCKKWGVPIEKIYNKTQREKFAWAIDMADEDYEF

physchem = conditions: organic solvent or mixture, thermodynamic from solid
[4] = cited from earlier work
acetylcholine = conditions: compared with CPT-11; cited from earlier work
[5] = anhydrous ethanol, 10 equivalents of triethanolamine
[6] = lyophilized with 250 mg mPEG-PLA, tromethamine, mannitol, reconstituted with 4 Ml water for injection

SMILES: CCc1c2c(nc3ccc(O)cc13)-c1cc3c(c(=O)n1C2)COC(=O)C3(O)CC (stereo not drawn) [SN-38, 7-ethyl-10-hydroxycamptothecin]
- SN-38 in the form of a lactone ([1]; 1 mg SN-38, 10 mg tromethamine, 1 Ml anhydrous ethanol, 500 mg cremophore EL, diluted with acetonitrile): 100%
- Lacton content ([1]; SN-38 1 mg in 1 ml anhydrous ethanol, amine compound 10 equivalents): 100%
- Lacton content ([1]; SN-38 1 mg in 1 ml organic solvent, tromethamine 10 equivalents): 100%
- Form of SN-38 by HPLC analysis [1, 5]: no carboxy anion form was observed
- Concentration of SN-38 [2]: 220 µg/mL
- SN-38 in the form of the lactone [2]: ≥ 95%
- pH of the solution diluted with saline [2]: 8.7
- pH of the aqueous solution ([3]; Example 8: 12 mg tromethamine, 200 mg mPEG-PLA, mannitol, lyophilized, reconstituted with 4 Ml injectable water): 8.4
- Lactone form of SN-38 ([3]; Example 8 lyophilized formulation reconstituted with 4 Ml injectable water): 97%
- Drug content ([3]; Example 8 lyophilized formulation reconstituted with 4 Ml injectable water, HPLC): 242 µg/mL
- Concentration of SN-38 [3, 6]: 205 µg/mL
- SN-38 in the form of a lactone [3, 6]: ≥ 92%
- pH of the aqueous solution [3, 6]: 8.4
- Solubility of SN-38 (anhydrous ethanol without adding an amine compound): a few
- Solubility of SN-38 [5]: about 1 mg/Ml
- Activity for inhibiting topoisomerase □, higher than that of CPT-11 (topoisomerase □): about 1,000 times
- solubility at 12 h (physchem; Solubility of SN-38 in ethanol, ethanol, no amine): 8 µg/mL (≈ 20.4 µM)
- solubility at 12 h (physchem; Solubility of SN-38 in ethanol, in the presence of 5 or more equivalents of diethanolamine): ≥ 1000 µg/mL
- solubility at 12 h (physchem; Solubility, SN-38 1 mg in 1 ml anhydrous ethanol, amine compound 10 equivalents, room temperature 12 hours): ≥ 1000 µg/mL
- solubility at 12 h (physchem; Solubility, SN-38 1 mg in 1 ml organic solvent, tromethamine 10 equivalents, room temperature 12 hours): ≥ 1000 µg/mL
- Solubility in water of the active lactone form ([4]; active lactone form): not more than 10 μg/ml
- Solubility of SN-38 in water [4]: not more than 10 μg/ml
- Solubility in water of the carboxy anion form ([4]; inactive carboxy anion form): ≥ 4000 µg/mL
- Effect for inhibiting acetylcholine which causes diarrhea (acetylcholine): much lower than that of CPT-11
